Source: ChEMBL document CHEMBL1152020, “Novel 2,5-disubstituted-1H-pyrroles with high affinity for the dopamine D3 receptor” (Bioorg Med Chem Lett, 1996)

Molecular target: D(3) dopamine receptor (Homo sapiens, UniProt P35462)
Assay: Binding affinity towards human Dopamine receptor D3 expressed in CHO cells by [125I]iodosulpiride displacement.
Format: cell-based

D(3) dopamine receptor, sequence (P35462 whole entry): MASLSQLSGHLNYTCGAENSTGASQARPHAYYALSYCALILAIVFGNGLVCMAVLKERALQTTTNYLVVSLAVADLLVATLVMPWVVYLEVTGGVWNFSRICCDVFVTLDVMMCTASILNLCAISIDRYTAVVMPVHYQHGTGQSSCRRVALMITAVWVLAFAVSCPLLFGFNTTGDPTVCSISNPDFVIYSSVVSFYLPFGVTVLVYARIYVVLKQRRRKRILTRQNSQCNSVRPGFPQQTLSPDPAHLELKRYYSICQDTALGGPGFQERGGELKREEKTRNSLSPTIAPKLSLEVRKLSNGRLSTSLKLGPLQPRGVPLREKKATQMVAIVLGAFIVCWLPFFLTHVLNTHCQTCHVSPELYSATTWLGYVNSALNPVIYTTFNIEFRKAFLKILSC

Compound | Ki
CCS(=O)(=O)c1ccc(OC)c(-c2ccc(CN3CCCCCC3c3ccccc3)[nH]2)c1 (stereo not given) | 0.00126 µM
CCS(=O)(=O)c1ccc(OC)c(-c2ccc(CN3CCCCC3)[nH]2)c1 | 0.0251 µM
CCN(Cc1ccccc1)Cc1ccc(-c2cc(S(=O)(=O)CC)ccc2OC)[nH]1 | 0.000316 µM
CCN1CCCCC1c1ccc(-c2cc(S(=O)(=O)CC)ccc2OC)[nH]1 (stereo not given) | 0.002 µM
CCN1CCCC1c1ccc(-c2cc(S(=O)(=O)CC)ccc2OC)[nH]1 (stereo not given) | 0.00501 µM
CCS(=O)(=O)c1ccc(OC)c(-c2ccc(C(C)N3CCCCCC3)[nH]2)c1 (stereo not given) | 0.02 µM
CCS(=O)(=O)c1ccc(OC)c(-c2ccc(CN3CCCC3c3ccccc3)[nH]2)c1 (stereo not given) | 0.001 µM
CCS(=O)(=O)c1ccc(OC)c(-c2ccc(CN3CCCCCCC3c3ccccc3)[nH]2)c1 (stereo not given) | 0.02 µM
CCS(=O)(=O)c1ccc(OC)c(-c2ccc(CN3CCCCC3c3ccccc3)[nH]2)c1 (stereo not given) | 0.00126 µM
CCS(=O)(=O)c1ccc(OC)c(-c2ccc(C(C)N3CCCC3)[nH]2)c1 (stereo not given) | 0.02 µM

Next, values leading:

Ki | Compound
0.00631 µM | CCN1CCCC1CNC(=O)c1cc(S(=O)(=O)CC)ccc1OC (stereo not given) [SULTOPRIDE]
0.0158 µM | CCS(=O)(=O)c1ccc(OC)c(-c2ccc(CN3CCCCCC3)[nH]2)c1
0.01 µM | CCS(=O)(=O)c1ccc(OC)c(-c2ccc(C(C)N3CCCCC3)[nH]2)c1 (stereo not given)
0.0398 µM | CCN(CC)Cc1ccc(-c2cc(S(=O)(=O)CC)ccc2OC)[nH]1
0.002 µM | CCN1CCCCCC1c1ccc(-c2cc(S(=O)(=O)CC)ccc2OC)[nH]1 (stereo not given)
0.0631 µM | CCS(=O)(=O)c1ccc(OC)c(-c2ccc(CN3CCCC3)[nH]2)c1
0.794 µM | CCS(=O)(=O)c1ccc(OC)c(-c2ccc(CN3CCOCC3)[nH]2)c1

Molecular target: Dopamine receptors; D2 & D3 (Homo sapiens) (UniProt P14416+P35462)
Assay: Selectivity at D3 compared to D2 receptors.
Format: protein assay

Compound | Selectivity
CCS(=O)(=O)c1ccc(OC)c(-c2ccc(CN3CCCCCC3c3ccccc3)[nH]2)c1 (stereo not given) | 30
CCS(=O)(=O)c1ccc(OC)c(-c2ccc(CN3CCCCC3)[nH]2)c1 | 6
CCN(Cc1ccccc1)Cc1ccc(-c2cc(S(=O)(=O)CC)ccc2OC)[nH]1 | 3
CCN1CCCCC1c1ccc(-c2cc(S(=O)(=O)CC)ccc2OC)[nH]1 (stereo not given) | 4
CCN1CCCC1c1ccc(-c2cc(S(=O)(=O)CC)ccc2OC)[nH]1 (stereo not given) | 5
CCS(=O)(=O)c1ccc(OC)c(-c2ccc(C(C)N3CCCCCC3)[nH]2)c1 (stereo not given) | 4
CCS(=O)(=O)c1ccc(OC)c(-c2ccc(CN3CCCC3c3ccccc3)[nH]2)c1 (stereo not given) | 15
CCS(=O)(=O)c1ccc(OC)c(-c2ccc(CN3CCCCCCC3c3ccccc3)[nH]2)c1 (stereo not given) | 15
CCS(=O)(=O)c1ccc(OC)c(-c2ccc(CN3CCCCC3c3ccccc3)[nH]2)c1 (stereo not given) | 10
CCS(=O)(=O)c1ccc(OC)c(-c2ccc(C(C)N3CCCC3)[nH]2)c1 (stereo not given) | 20

Second part, the compound after the results:

Selectivity | Compound
10 | CCS(=O)(=O)c1ccc(OC)c(-c2ccc(CN3CCCCCC3)[nH]2)c1
30 | CCS(=O)(=O)c1ccc(OC)c(-c2ccc(C(C)N3CCCCC3)[nH]2)c1 (stereo not given)
8 | CCN(CC)Cc1ccc(-c2cc(S(=O)(=O)CC)ccc2OC)[nH]1
4 | CCN1CCCCCC1c1ccc(-c2cc(S(=O)(=O)CC)ccc2OC)[nH]1 (stereo not given)
4 | CCS(=O)(=O)c1ccc(OC)c(-c2ccc(CN3CCCC3)[nH]2)c1
4 | CCS(=O)(=O)c1ccc(OC)c(-c2ccc(CN3CCOCC3)[nH]2)c1

Molecular target: D(2) dopamine receptor (Homo sapiens, UniProt P14416)
Assay: Binding affinity towards human Dopamine receptor D2 expressed in CHO cells by [125I]iodosulpiride displacement.
Format: cell-based

D(2) dopamine receptor, sequence (P14416 whole entry): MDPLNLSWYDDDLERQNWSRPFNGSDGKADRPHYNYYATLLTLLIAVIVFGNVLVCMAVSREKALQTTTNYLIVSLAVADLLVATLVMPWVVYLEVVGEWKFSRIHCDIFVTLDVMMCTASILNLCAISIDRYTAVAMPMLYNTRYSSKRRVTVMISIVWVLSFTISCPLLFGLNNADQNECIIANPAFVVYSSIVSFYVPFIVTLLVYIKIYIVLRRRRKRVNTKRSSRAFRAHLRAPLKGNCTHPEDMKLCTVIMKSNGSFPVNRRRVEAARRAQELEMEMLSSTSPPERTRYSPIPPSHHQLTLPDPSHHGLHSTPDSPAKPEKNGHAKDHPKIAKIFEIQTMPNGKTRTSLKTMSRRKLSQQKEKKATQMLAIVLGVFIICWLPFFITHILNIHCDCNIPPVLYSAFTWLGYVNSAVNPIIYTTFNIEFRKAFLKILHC

Compound | Ki
CCS(=O)(=O)c1ccc(OC)c(-c2ccc(CN3CCCCCC3c3ccccc3)[nH]2)c1 (stereo not given) | 0.0398 µM
CCS(=O)(=O)c1ccc(OC)c(-c2ccc(CN3CCCCC3)[nH]2)c1 | 0.158 µM
CCN(Cc1ccccc1)Cc1ccc(-c2cc(S(=O)(=O)CC)ccc2OC)[nH]1 | 0.000794 µM
CCN1CCCCC1c1ccc(-c2cc(S(=O)(=O)CC)ccc2OC)[nH]1 (stereo not given) | 0.00794 µM
CCN1CCCC1c1ccc(-c2cc(S(=O)(=O)CC)ccc2OC)[nH]1 (stereo not given) | 0.0251 µM
CCS(=O)(=O)c1ccc(OC)c(-c2ccc(C(C)N3CCCCCC3)[nH]2)c1 (stereo not given) | 0.0794 µM
CCS(=O)(=O)c1ccc(OC)c(-c2ccc(CN3CCCC3c3ccccc3)[nH]2)c1 (stereo not given) | 0.0158 µM
CCS(=O)(=O)c1ccc(OC)c(-c2ccc(CN3CCCCCCC3c3ccccc3)[nH]2)c1 (stereo not given) | 0.316 µM
CCS(=O)(=O)c1ccc(OC)c(-c2ccc(CN3CCCCC3c3ccccc3)[nH]2)c1 (stereo not given) | 0.0126 µM
CCS(=O)(=O)c1ccc(OC)c(-c2ccc(C(C)N3CCCC3)[nH]2)c1 (stereo not given) | 0.398 µM

Further lines, results first:

Ki | Compound
0.00631 µM | CCN1CCCC1CNC(=O)c1cc(S(=O)(=O)CC)ccc1OC (stereo not given) [SULTOPRIDE]
0.158 µM | CCS(=O)(=O)c1ccc(OC)c(-c2ccc(CN3CCCCCC3)[nH]2)c1
0.316 µM | CCS(=O)(=O)c1ccc(OC)c(-c2ccc(C(C)N3CCCCC3)[nH]2)c1 (stereo not given)
0.316 µM | CCN(CC)Cc1ccc(-c2cc(S(=O)(=O)CC)ccc2OC)[nH]1
0.00794 µM | CCN1CCCCCC1c1ccc(-c2cc(S(=O)(=O)CC)ccc2OC)[nH]1 (stereo not given)
0.251 µM | CCS(=O)(=O)c1ccc(OC)c(-c2ccc(CN3CCCC3)[nH]2)c1
3.16 µM | CCS(=O)(=O)c1ccc(OC)c(-c2ccc(CN3CCOCC3)[nH]2)c1
